# Measured values from patent US8722629B2, “Auristatin derivatives and use thereof” (Seattle Genetics, Inc., priority 2010, dated 2014).
# Where a name gives a salt, the structure may show the parent alone. Starred links: 1 amine or outer side, 2 acyl side, 3 side chain; linkers in the order of their positions; H or OH if unused. Non-standard residues stand in square brackets, D forms with d. Residues, ends and D or L forms follow the SMILES beside them. *: point of attachment. Dolaproine = CO[C@@H]([C@@H]1CCCN1)[C@@H](C)C(=O)O; X2 = C[C@@H](c1ccccc1)[C@H](N[*:1])C(=O)[*:2]; X1 = O=C([C@]1(N[*:1])C[C@@H]1c1ccccc1)[*:2]; Dil = CC[C@H](C)[C@H](NC)[C@@H](CC(=O)O)OC; Oxazinan2yl(1,2) = C1CCN(*)OC1; NMeV = CN[C@H](C(=O)O)C(C)C; X3 = c1ccc2c(c1)CON(*)C2
# Experiments:
# [1] = test system: human colon carcinoma cell line HT29 wt (wild type); assay: Antiproliferative effect on the HT29 wt cell line (MTT assay); type: cell-based; settings: Homo sapiens, HT-29, HT29 wt cells, 10% FCS, incubation 48 h to 96 h
# Method: B-2. Determination of the Antiproliferative Effect on the HT29 Wt Cell Line:
# A defined cell number of the human colon carcinoma cell line HT29 wt (wild type) was sown in a 96-well microtiter plate in complete medium (10% FCS-RPMI) (2500 cells/well) and incubated at 37° C./5% CO2 overnight. After 18 h, the sowing medium was replaced by fresh medium with 10% FCS. Treatment was initiated by addition of the respective test substance. From the substances to be investigated, dose/activity curves in a concentration range of from 10^−5 M to 10^−14 M (1:10-dilution series) were determined. The chosen incubation times were from 48 h to 96 h. Pro-liferation was determined with the aid of the MTT assays (ATCC, Manassas, Va., USA, catalogue No. 30-1010K). After the incubation time, the MTT reagent was incubated with the cells for 4 h, and the cells were subsequently lysed by adding the detergent overnight. The dye formed was detected at 570 nm. Proliferation of cells which had not been treated with test substance, but had otherwise been treated identically, was defined as 100%. The data obtained from this test are triple determinations, and at least two independent experiments were carried out.
# [2] = test system: human renal cancer cell line 786-0; assay: Antiproliferative effect on the 786-0 RCC cell line (MTT assay); type: cell-based; settings: Homo sapiens, 786-0, 786-0 cells, incubation 48 h to 96 h
# Method: B-1. Determination of the Antiproliferative Effect on the 786-0 RCC Cell Line:
# A defined cell number of the human renal cancer cell line 786-0 was sown in a 96-well microtiter plate in complete medium (2500 or 7000 cells/well) and incubated at 37° C./5% CO2 overnight. After 18 h, the sowing medium was replaced by serum-free medium or medium with 2% FCS. Treatment was initiated by addition of the respective test substance in varying concentration (10^−5 M to […]). The chosen incubation times were from 48 h to 96 h. Proliferation was determined with the aid of the MTT assays (ATCC, Manassas, Va., USA, catalogue No. 30-1010K). After the incubation time, the MTT reagent was incubated with the cells for 4 h, and the cells were subsequently lysed by adding the detergent overnight. The dye formed was detected at 570 nm. […] The data obtained from this test are triple determinations, and at least two independent experiments were carried out.
# [3] = Plasma stability in vitro, rat plasma; type: in vitro ADME; settings: 37° C.; for half-life at 39.2 µg/ml: male, Wistar, rat plasma (Li heparin), Method A (HPLC)
# Method: (§1) B-4. Determination of the Plasma Stability in vitro:
# (§2) 1 mg of the test substance in question was dissolved in 0.5 ml of acetonitrile/DMSO (9:1). From this solution, 20 μl were removed and added to 1 ml of rat or human plasma at 37° C. (plasma of male Wistar rats with Li heparin from Harlan & Winkelmann or fresh human leukocyte-depleted plasma originating from a whole blood sample). From this plasma solution, which was shaken vigorously, 100 μl aliquots were removed immediately after addition of the sample (initial value as reference) and then after 5, 10, 30, 60, 120, 180 and 240 minutes and optionally after 24 hours and added to 300 μl of acetonitrile. The precipitated plasma proteins were removed by centrifugation at 5000 rpm for 10 minutes, and 30 μl of the supernatant were analysed by HPLC for its content of unmodified test substance. Quantification was via the area percentages of the corresponding peaks.
# HPLC Method for Rat Plasma:
# Instrument: Agilent 1200 with DAD, binary pump, autosampler, column oven and thermostat; column: Kromasil 100 C18, 250 mm×4 mm, […]; column temperature: 45° C.; mobile phase A: 5 ml of perchloric acid/1 of water, mobile phase B: acetonitrile; gradient: 0-8 min 98% A, 2% B; 8-15 min 56% A, 44% B; […] 10% A, 90% B; 20-21 min 10% A, 90% B; […] 98% A, 2% B; […] 98% A, 2% B; flow rate: 2 ml/min; UV detection: 220 nm.
# (§3) The test substance was incubated in rat or human plasma at 37° C. over a period of 5 h with gentle stirring. At different points in time (0, 2, 5, 10, 20, 30, 60, 120, 180 and 300 minutes), a 100 μl aliquot was removed. Following addition of internal standard (10 μl), the proteins were precipitated by addition of 200 μl of acetonitrile and the mixture was centrifuged in an Eppendorf centrifuge for 5 minutes. After addition of 150 μl of ammonium acetate buffer pH 3 to 150 μl of the supernatant, the content of unmodified test substance was analysed by LC/MSMS.
# [4] = Plasma stability in vitro, human plasma; type: in vitro ADME
# Method: as §1, §2
# HPLC Method for Human Plasma:
# Instrument: Agilent 1100 with DAD, binary pump, autosampler, column oven and thermostat;
# column: Kromasil 100 C18, 250 mm×4 mm, 5 μm; column temperature: 45° C.; mobile phase A: 5 ml of perchloric acid/1 of water, mobile phase B: acetonitrile; gradient: 0-3 min 98% A, 2% B; 3-10 min 65% A, 35% B; 10-15 min 40% A, 60% B; 15-21 min 10% A, 90% B; 21-22 min 10% A, 90% B; 22-24 min 98% A, 2% B; 24-26 min 98% A, 2% B; flow rate: 2 ml/min; UV detection: 220 nm.
# as §3
Compound,IC50 [1],IC50 [2],half-life at 39.2 µg/ml [3],degradation in human plasma after 24 h [4],half-life ([3]; Method B (LC/MSMS))
"CC[C@H](C)[C@@H]([C@@H](CC(=O)N1CCC[C@H]1[C@H](OC)[C@@H](C)C(=O)N[C@@]1(C(=O)N2CCCCO2)C[C@@H]1c1ccccc1)OC)N(C)C(=O)[C@@H](NC(=O)[C@H](C(C)C)N(C)CCCC(=O)O)C(C)C [Example 23, N-(3-Carboxypropyl)-N-methyl-L-valyl-N-[(3R,4S,5S)-3-methoxy-1-{(2S)-2-[(1R,2R)-1-methoxy-2-methyl-3-{[(1S,2R)-1-(1,2-oxazinan-2-ylcarbonyl)-2-phenylcyclopropyl]amino}-3-oxopropyl]-pyrrolidin-1-yl}-5-methyl-1-oxoheptan-4-yl]-N-methyl-L-valinamide]",0.7 nM,11 nM,> 24 h,–,–
"CC[C@H](C)[C@@H]([C@@H](CC(=O)N1CCC[C@H]1[C@H](OC)[C@@H](C)C(=O)N[C@@]1(C(=O)N2Cc3ccccc3CO2)C[C@@H]1c1ccccc1)OC)N(C)C(=O)[C@@H](NC(=O)[C@@H](NC)C(C)C)C(C)C [Example 18, N-Methyl-L-valyl-N-[(3R,4S,5S)-1-{(2S)-2-[(1R,2R)-3-{[(1S,2R)-1-(1,4-dihydro-3H-2,3-benzoxazin-3-ylcarbonyl)-2-phenylcyclopropyl]amino}-1-methoxy-2-methyl-3-oxopropyl]pyrrolidin-1-yl}-3-methoxy-5-methyl-1-oxoheptan-4-yl]-N-methyl-L-valinamide, trifluoroacetic acid salt] (H-[NMeV]V[Dil][Dolaproine][X1]-X3)",1.2 nM,–,> 24 h,–,–
"CC[C@H](C)[C@@H]([C@@H](CC(=O)N1CCC[C@H]1[C@H](OC)[C@@H](C)C(=O)N[C@H](Cc1ccccc1)C(=O)N1CCCCO1)OC)N(C)C(=O)[C@@H](NC(=O)[C@@H](NC)C(C)C)C(C)C [Example 21, N-Methyl-L-valyl-N-[(3R,4S,5S)-3-methoxy-1-{(2S)-2-[(1R,2R)-1-methoxy-2-methyl-3-{[(2R)-1-(1,2-oxazinan-2-yl)-1-oxo-3-phenylpropan-2-yl]amino}-3-oxopropyl]pyrrolidin-1-yl}-5-methyl-1-oxoheptan-4-yl]-N-methyl-L-valinamide, trifluoroacetic acid salt] (H-[NMeV]V[Dil][Dolaproine][dF]-{Oxazinan2yl(1,2)})",–,–,–,no degradation was observed,–
"CC[C@H](C)[C@@H]([C@@H](CC(=O)N1CCC[C@H]1[C@H](OC)[C@@H](C)C(=O)N[C@H](C(=O)N1CCCCO1)[C@@H](C)c1ccccc1)OC)N(C)C(=O)[C@@H](NC(=O)[C@@H](NC)C(C)C)C(C)C [Example 4, N-Methyl-L-valyl-N-[(3R,4S,5S)-3-methoxy-1-{(2S)-2-[(1R,2R)-1-methoxy-2-methyl-3-{[(2S,3S)-1-(1,2-oxazinan-2-yl)-1-oxo-3-phenylbutan-2-yl]amino}-3-oxopropyl]pyrrolidin-1-yl}-5-methyl-1-oxoheptan-4-yl]-N-methyl-L-valinamide, trifluoroacetic acid salt] (H-[NMeV]V[Dil][Dolaproine][X2]-{Oxazinan2yl(1,2)})",0.2 nM,14 nM,–,–,3 h
"CC[C@H](C)[C@@H]([C@@H](CC(=O)N1CCC[C@H]1[C@H](OC)[C@@H](C)C(=O)N[C@@H](Cc1ccccc1)C(=O)N1CCCCO1)OC)N(C)C(=O)[C@@H](NC(=O)[C@@H](NC)C(C)C)C(C)C [Example 1, N-Methyl-L-valyl-N-[(3R,4S,5S)-3-methoxy-1-{(2S)-2-[(1R,2R)-1-methoxy-2-methyl-3-{[(2S)-1-(1,2-oxazinan-2-yl)-1-oxo-3-phenylpropan-2-yl]amino}-3-oxopropyl]pyrrolidin-1-yl}-5-methyl-1-oxoheptan-4-yl]-N-methyl-L-valinamide, trifluoroacetic acid salt] (H-[NMeV]V[Dil][Dolaproine]F-{Oxazinan2yl(1,2)})",0.1 nM,4 nM,–,no degradation was observed,–
